Assay results as given in patent US20210338749A1, “METHODS OF TREATMENT OF INFLAMMATORY CONDITIONS AND ASSOCIATED INFECTIONS” (Servatus Ltd., priority 2018, published 2021).

Columns and labels:
[1] = system: DSS-induced ulcerative colitis; conditions: chronic 2% DSS murine model, previous data obtained by CRL; cited from earlier work
[2] = system: Campylobacter jejuni (ATCC 33291); test: Agar well diffusion assay; assay type: cell-based; conditions: C. jejuni; 100 μL culture per 9 mm well, 24 hours; ciprofloxacin 5 μg
Method: (§1) The ability of the Lactobacillus species L. diolivorans, L. paracasei, L. parafarraginis, L. rapi and L. zeae deposited pursuant to the Budapest Treaty as described hereinbefore were tested for their ability to inhibit the growth of bacterial pathogens associated with inflammation and various inflammatory conditions. Pathogens tested for this purpose were Campylobacter jejuni (ATCC 33291), Helicobacter pylori (ATCC 700824), Clostridium difficile (ATCC 9689), Salmonella typhimurium (ATCC 29630), Yersinia enterocolitica (ATCC 23715), Citrobacter sp (ATCC 51378), Streptococcus pyogenes (ATCC 19615), Streptococcus mutans (ATCC 25175), Klebsiella oxytoca (ATCC 700324), and Proteus mirabilis (ATCC 25933). C. jejuni and H. pylori were grown under microaerobic conditions at 37° C. in 5% Columbia horse blood agar (CBA). S. typhimurium, Y. enterocolitica, Citrobacter sp., K. oxytoca and P. mirabilis were grown under aerobic conditions at 37° C. in nutrient agar. S. pyogenes and S. mutans were grown under aerobic conditions with 5% CO2 at 37° C. in 5% CBA. C. difficile was grown under anaerobic conditions at 37° C. in 5% CBA.
(§2) Inhibition of pathogen growth was determined using an agar well diffusion assay. Cultures of the five test Lactobacillus species were grown in MRS broth for 24 hours at 37° C. Each pathogen was sub-cultured onto nutrient agar plates or 5% CBA plates and incubated under the appropriate conditions (as described above) prior to resuspension in DPBS to give a McFarland standard of 0.5 (equivalent to 10^8 CFU/mL). Each 0.5 McFarland standardised culture was spread, using a swab, onto nutrient agar plates or CBA plates and allowed to soak in prior to making 9 mm wells. 100 μL of each test Lactobacillus, was then added to individual wells and the plates were incubated for 24 hours at 37° C. […] Following incubation, zones of inhibition or zones of growth reduction (hazing of growth) were measured (mm) and recorded. Two readings were taken for each zone and three replicates were used.

[3] = system: Citrobacter sp (ATCC 51378); test: Agar well diffusion assay; assay type: cell-based; conditions: 100 μL culture per 9 mm well, 24 hours, ciprofloxacin 5 μg
Method: as §1, §2

[4] = system: Helicobacter pylori (ATCC 700824); test: Agar well diffusion assay; assay type: cell-based; conditions: H. pylori; 100 μL culture per 9 mm well, 24 hours; ciprofloxacin 5 μg
Method: as §1, §2

[5] = system: Klebsiella oxytoca (ATCC 700324); test: Agar well diffusion assay; assay type: cell-based; conditions: K. oxytoca; 100 μL culture per 9 mm well, 24 hours; ciprofloxacin 5 μg
Method: as §1, §2

[6] = system: Proteus mirabilis (ATCC 25933); test: Agar well diffusion assay; assay type: cell-based; conditions: P. mirabilis; 100 μL culture per 9 mm well, 24 hours; ciprofloxacin 5 μg
Method: as §1, §2

[7] = system: Salmonella typhimurium (ATCC 29630); test: Agar well diffusion assay; assay type: cell-based; conditions: S. typhimurium; 100 μL culture per 9 mm well, 24 hours; ciprofloxacin 5 μg
Method: as §1, §2

[8] = system: Streptococcus mutans (ATCC 25175); test: Agar well diffusion assay; assay type: cell-based; conditions: S. mutans; 100 μL culture per 9 mm well, 24 hours; ciprofloxacin 5 μg
Method: as §1, §2

[9] = system: Streptococcus pyogenes (ATCC 19615); test: Agar well diffusion assay; assay type: cell-based; conditions: S. pyogenes; 100 μL culture per 9 mm well, 24 hours; ciprofloxacin 5 μg
Method: as §1, §2

[10] = system: Yersinia enterocolitica (ATCC 23715); test: Agar well diffusion assay; assay type: cell-based; conditions: Y. enterocolitica; 100 μL culture per 9 mm well, 24 hours; ciprofloxacin 5 μg
Method: as §1, §2

[11] = system: Escherichia coli K12; test: Agar well diffusion assay; assay type: cell-based; conditions: E. coli, includes well diameter of 9 mm
Method: as §2
(§3) The ability of L. diolivorans, L. paracasei, L. parafarraginis, L. rapi and L. zeae deposited pursuant to the Budapest Treaty as described hereinbefore were then tested for their ability to inhibit the growth of pathogenic bacteria Staphylococcus aureus (ATCC 29213 and ATCC 25923), Staphylococcus epidermidis (clinical isolate), Pseudomonas aeruginosa (ATCC 27853) and Escherichia coli K12. These pathogens were grown under aerobic conditions at 37° C. in nutrient agar. Inhibition of growth was determined using an agar well diffusion assay as described above. In addition, cell free supernatants derived from culture of the Lactobacillus species were also tested. Briefly, after 24 hours growth, cultures of Lactobacillus were centrifuged at 10,000×g and the supernatant filter sterilised through a 0.2 μm membrane. 100 μl of cell free supernatant was added to the wells containing pathogen.

[12] = system: Pseudomonas aeruginosa (ATCC 27853); test: Agar well diffusion assay; assay type: cell-based; conditions: P. aeruginosa, includes well diameter of 9 mm
Method: as §2, §3

[13] = system: Staphylococcus aureus (ATCC 25923); test: Agar well diffusion assay; assay type: cell-based; conditions: S. aureus (ATCC 25923), includes well diameter of 9 mm
Method: as §2, §3

[14] = system: Staphylococcus aureus (ATCC 29213); test: Agar well diffusion assay; assay type: cell-based; conditions: S. aureus (ATCC 29213), includes well diameter of 9 mm
Method: as §2, §3

[15] = cell free supernatants derived from Lactobacilli cultures

## O=C(O)c1cc(/N=N/c2ccc(S(=O)(=O)Nc3ccccn3)cc2)ccc1O [Sulfasalazine]
[1]
  Therapeutic efficacy (DAI score): failed to demonstrate therapeutic efficacy

## O=C(O)c1cn(C2CC2)c2cc(N3CCNCC3)c(F)cc2c1=O [Ciprofloxacin, ciprofloxacin]
[2]
  Zones of inhibition/zones of growth reduction: 30.2 mm
[3]
  Zones of inhibition/zones of growth reduction: 47.0 mm
[4]
  Zones of inhibition/zones of growth reduction: 31.7 mm
[5]
  Zones of inhibition/zones of growth reduction: 41.2 mm
[6]
  Zones of inhibition/zones of growth reduction: 44.2 mm
[7]
  Zones of inhibition/zones of growth reduction: 49 mm
[8]
  Zones of inhibition/zones of growth reduction: 28.5 mm
[9]
  Zones of inhibition/zones of growth reduction: 30.2 mm
[10]
  Zones of inhibition/zones of growth reduction: 44.2 mm
[11]; [15]
  Zones of inhibition/zones of growth reduction: 40.0 mm
[11]; live cultures of Lactobacilli
  Zones of inhibition/zones of growth reduction: 40.0 mm
[12]; [15]
  Zones of inhibition/zones of growth reduction: 39.2 mm
[12]; live cultures of Lactobacilli
  Zones of inhibition/zones of growth reduction: 39.2 mm
[13]; [15]
  Zones of inhibition/zones of growth reduction: 33.7 mm
[13]; live cultures of Lactobacilli
  Zones of inhibition/zones of growth reduction: 33.7 mm
[14]; [15]
  Zones of inhibition/zones of growth reduction: 33.7 mm
[14]; live cultures of Lactobacilli
  Zones of inhibition/zones of growth reduction: 33.7 mm

## Nc1ccc(O)c(C(=O)O)c1 [5-Aminosalicylic acid]
[1]
  Therapeutic efficacy (DAI score): failed to demonstrate therapeutic efficacy

## Nc1nc2nc[nH]c2c(=S)[nH]1 [6-Thioguanine]
[1]
  Therapeutic efficacy (DAI score): failed to demonstrate therapeutic efficacy

## C[C@]12C=CC(=O)C=C1CC[C@@H]1[C@@H]2[C@@H](O)C[C@@]2(C)[C@H]1CC[C@]2(O)C(=O)CO [Prednisolone]
[1]
  Therapeutic efficacy (DAI score): failed to demonstrate therapeutic efficacy
